The text below walks through data of article PMC4355590, “A Kinetic Study of the Main Guaco Metabolites Using Syrup Formulation and the Identification of an Alternative Route of Coumarin Metabolism in Humans” (PLoS ONE, 2015).

A short description of data set [1]: Stability in human plasma: short-term, freeze-thaw and long-term. The format is in vitro ADME. Conditions: for Mean recovery: n = 8, ± SD. As for the experimental part: The samples were vortexed for 2 min and then were kept at room temperature for 8 h. Afterward, the samples were spiked with 50 μL of IS solution and were vortexed (2 min) and submitted to the extraction procedures. The short-term stability was evaluated by comparing the mean recovery of the analytes and the IS obtained from stored samples with the mean values obtained with freshly prepared samples, at same concentration levels.
(§1) Freeze-thawed, post-preparative and long-term stability assay samples were prepared and evaluated similar to the short-term stability samples. However, the freeze thawing assay was assessed after undergoing three freeze-thaw cycles (one freeze-thaw cycle per day on three consecutive days) and post-preparative assay, maintaining the extracted samples for 24 hours in the Sample Manager (20°C, transparent vials). The long-term stability of human plasma stored at -40°C was assessed at the end of the study (60 days).

Data set [2] in a line: Post-preparative stability of extracted samples. The format is physicochemical. Conditions: for Mean recovery: post-preparative: extracted samples 24 hours at 20°C, n = 8, ± SD; for RE: post-preparative. The method, then: as §1
For data set [3], the system named is allergic airway inflammation. Set-up: method as in PMID 19289114. Conditions: mice, 60 mg/kg; cited from earlier work.
Data set [4] is described as follows: Second screening: 60 mL of guaco syrup spiked with 100, 500, 1000 or 1500 mg of COU. In kind it is in vivo, human. As for the experimental part: All the volunteers fasted for 8 h prior to the administration of guaco syrup and blood collection. Blood samples (3.0 mL) were collected (using flexible catheter 18–20G) before the syrup administration (zero min) and at fifteen time points after the syrup administration (10, 20, 30, 45, 60, 75, 90, 120, 150, 180, 240, 360, 480, 540 and 600 min). The anticoagulant used was tetrasodium edetate. All the samples were immediately centrifuged at 4000 rpm (5.0 min, room temperature), and the plasma was aliquoted and frozen at -40°C until analysis. The pharmacokinetic analysis was performed using a non-compartmental model, considering an extravascular administration route and using WinNonlin Professional software, version 5.3. The relationships among the areas under the curves (r areas = AUC0-t/AUC0-inf), were used to confirm the suitability of the experimental design. Values greater than 0.8 indicated an appropriate experimental design.

In the next data set the test system is guinea pig tracheas. Set-up: method as in PMID 16084046. The following applies: cited from earlier work.
The next data set has as its system histamine inhalation. Set-up: method as in PMID 16084046. Conditions: guinea pigs; cited from earlier work.
On the set-up of data set [5]: method as in PMID 598421. The following applies: cited from earlier work.
Where [6] appears, read: Long-term: plasma at -40°C, 60 days, high level (1250.0, 750.0, 750.0, 500.0 ng/mL).
The mark [7] stands for this setting: Long-term: plasma at -40°C, 60 days, low level (50.0, 12.5, 25.0, 10.0 ng/mL).
Setting [8] is: Short-term: plasma at room temperature for 8 h, high level (1250.0, 750.0, 750.0, 500.0 ng/mL).
Setting [9] is: Short-term: plasma at room temperature for 8 h, low level (50.0, 12.5, 25.0, 10.0 ng/mL).
[10] abbreviates: three freeze–thaw cycles, plasma, high level (1250.0, 750.0, 750.0, 500.0 ng/mL).
Setting [11] is: three freeze–thaw cycles, plasma, low level (50.0, 12.5, 25.0, 10.0 ng/mL).
Where [12] appears, read: high level (1250.0, 750.0, 750.0, 500.0 ng/mL).
[13] abbreviates: low level (50.0, 12.5, 25.0, 10.0 ng/mL).

Converted amounts (≈) assume the structure as drawn. Where two headings read alike, the source gives them in different places.

In the case of `O=c1ccc2ccc(O)cc2o1` [7-HCOU, 7-hydroxycoumarin], the Mean recovery in data set [1] (setting [6]) amounted to 674.4 ± 69.7 ng/mL; in data set [1] (setting [7]), 11.7 ± 1.1 ng/mL; in data set [1] (setting [8]), 738.1 ± 8.4 ng/mL; in data set [1] (setting [9]) it was 11.7 ± 0.6 ng/mL; in data set [1] (setting [10]), 714.8 ± 24.9 ng/mL; in data set [1] (setting [11]) it was 11.6 ± 0.6 ng/mL. Moreover, the Mean recovery in data set [2] (setting [12]) was determined as 776.4 ± 18.7 ng/mL; in data set [2] (setting [13]), 11.5 ± 0.7 ng/mL. The RE in data set [1] (Long-term, high level) is reported as -10.08%; in data set [1] (Long-term, low level), -6.19%; in data set [1] (Short-term, high level) it was -1.59%; in data set [1] (Short-term, low level) it was -6.24%; in data set [1] (freeze–thaw cycles, high level) it was -4.69%; in data set [1] (freeze–thaw cycles, low level) it was -7.29%. For the same molecule, the RE in data set [2] (high level) is 3.52%; in data set [2] (low level), -7.73%. Moreover, the “attenuation of allergic airway inflammation” value in data set [3] is recorded as “significant attenuation”.

By bioavailability is commonly meant the share of a dose that reaches the circulation, judged against a reference dose that is usually intravenous. For `O=c1ccc2ccccc2o1` [COU, 1,2 benzopyrone], the “time of peak absorption after syrup administration” value in data set [4] (all four volunteers, 100, 500, 1000 and 1500 mg COU) was found to be 10 min. Besides, in data set [4] (both sexes, human, plasma, oral, read-out: time of peak concentration in plasma), the Tmax fell in the range of 0.75 to 2 h. Besides, the concentration at 10 min in data set [4] (human, plasma, oral, 100 mg dosage, 10 min after syrup administration) amounted to 22.1 ng/mL. Moreover, the Mean recovery worked out at 1265.7 ± 99.2 ng/mL in data set [1] (setting [6]); 45.1 ± 3.6 ng/mL in data set [1] (setting [7]); 1205.5 ± 31.5 ng/mL in data set [1] (setting [8]); 52.4 ± 1.7 ng/mL in data set [1] (setting [9]); 1307.7 ± 40.7 ng/mL in data set [1] (setting [10]); 53.8 ± 2.7 ng/mL in data set [1] (setting [11]). The figures for the Mean recovery in data set [2] (setting [12]) and in data set [2] (setting [13]) were 1281.3 ± 44.2 ng/mL and 47.6 ± 3.4 ng/mL, respectively. Also, the RE in data set [1] (Long-term, high level) was 1.26%; in data set [1] (Long-term, low level) it was -9.71%; in data set [1] (Short-term, high level), -3.56%; in data set [1] (Short-term, low level), 4.81%; in data set [1] (freeze–thaw cycles, high level), 4.61%; in data set [1] (freeze–thaw cycles, low level) it was 7.62%. The RE in data set [2] (high level) is listed as 5.00%; in data set [2] (low level) it was -9.55%. In addition, the results for the “EC50, relaxing effect” value in the data set with guinea pig tracheas (guinea pig tracheas pre-contracted with carbachol) and with guinea pig tracheas (guinea pig tracheas pre-contracted with histamine) were 33.4 µg/mL (≈ 229 µM) and 35.0 µg/mL (≈ 239 µM), respectively. The “AD50 (adequate dose protecting 50% of the tested animals)” value in the data set on histamine inhalation is given as 75 mg/kg. For the same molecule, the bioavailability in data set [5] is recorded as 3.4%.

Turning to `O=C(O)/C=C/c1ccccc1O` [OCA, o-coumaric acid], the Mean recovery in data set [1] (setting [6]) was determined as 606.3 ± 26.8 ng/mL; in data set [1] (setting [7]), 22.5 ± 0.4 ng/mL; in data set [1] (setting [8]), 750.6 ± 29.0 ng/mL; in data set [1] (setting [9]) it was 25.2 ± 0.4 ng/mL; in data set [1] (setting [10]), 729.0 ± 41.7 ng/mL; in data set [1] (setting [11]), 22.9 ± 1.1 ng/mL. For the same molecule, the Mean recovery in data set [2] (setting [12]) is 727.4 ± 34.5 ng/mL; in data set [2] (setting [13]) it was 22.7 ± 0.6 ng/mL. Moreover, the RE in data set [1] (Long-term, low level) was -10.20%; in data set [1] (Short-term, high level) it was 0.07%; in data set [1] (Short-term, low level) it was 0.79%; in data set [1] (freeze–thaw cycles, high level), -2.79%; in data set [1] (freeze–thaw cycles, low level), -8.32%; in data set [2] (high level) it was -3.01%. Besides, the RE in data set [2] (low level) was -2.32%.
